Data published in patent publication US20260102346A1, “LIPID COMPOSITION” (priority 2022, published 2026).

What was measured:
[1] = test system: luciferase mRNA expression in livers and injection sites (muscles); assay: In vivo luciferase expression liver/muscle of LNP and LPP with different cationic lipids (Example 10); design: species or system Balb/c mice; conditions: 10 μg luciferase mRNA i.m., 6 hours after injection; for Liver/muscle (%, LNP): LNP preparation of the cationic lipid; for Liver/muscle (%, LPP): LPP preparation of the cationic lipid
From the text: Test of in vivo luciferase signal expression: female Balb/c mice (Beijing Vital River Laboratory Animal Technology Co., Ltd.) of 6-8 weeks of age were divided into 18 groups (M5-LNP, M5-LPP, SM102-LNP, SM102-LPP, ALC0315-LNP, ALC0315LPP, SW-II-121-LNP, SW-II-121-LPP, SW-II-122-LNP, SW-II-122-LPP, SW-II-134-3-LNP, SW-II-134-3-LPP, SW-II-138-2-LNP, SW-II-138-2-LPP, SW-II-139-2-LNP, SW-II-139-2-LPP, SW-II-140-2-LNP, and SW-II-140-2-LPP groups, with 3 mice per group). M5-LNP, M5-LPP, SM102-LNP, SM102-LPP, ALC0315-LNP, ALC0315LPP, SW-II-121-LNP, SW-II-121-LPP, SW-II-122-LNP, SW-II-122-LPP, SW-II-134-3-LNP, SW-II-134-3-LPP, SW-II-138-2-LNP, SW-II-138-2-LPP, SW-II-139-2-LNP, SW-II-139-2-LPP, SW-II-140-2-LNP, and SW-II-140-2-LPP solutions containing 10 μg of luciferase mRNA were administered by intramuscular injection (hind limbs of mice), respectively. 6 Hours after the administration, mice were injected intraperitoneally with 30 mg of a […] substrate. The bioluminescence was measured in a Xenogen IVIS-200 imaging system 15 minutes after substrate injection to evaluate the expression of the luciferase mRNA in the livers and injection sites (muscles) of the mice.

[2] = test system: luciferase mRNA expression in livers and injection sites (muscles); assay: In vivo luciferase expression of LNP with M5, MC3, SW-II-121 (Example 11.1); design: species or system Balb/c mice; conditions: LNP preparation, DSPC, PEG-DMG, 50:10:38.5:1.5, 10 μg luciferase mRNA, 6 hours after intramuscular administration
Method: Test of in vivo luciferase signal expression: female Balb/c mice (Beijing Vital River Laboratory Animal Technology Co., Ltd.) of 6-8 weeks of age were divided into 3 groups (M5-LNP, MC3-LNP, and SW-II-121-LNP, with 3 mice per group). M5-LNP, MC3-LNP, and SW-II-121-LNP solutions containing 10 μg of luciferase mRNA were administered by intramuscular injection (hind limbs of mice), respectively. 6 Hours after the administration, mice were injected intraperitoneally with 30 mg of a […] substrate. The bioluminescence was measured in a Xenogen IVIS-200 imaging system 15 minutes after substrate injection to evaluate the expression of the luciferase mRNA in the livers and injection sites (muscles) of the mice.

Structure (SMILES)	Liver/muscle (%, LNP) [1] [%]	Liver/muscle (%, LPP) [1] [%]	in vivo expression (luciferase, injection site and liver) [2]
CCCCCCCCC(CCCCCC)C(=O)OCCCCCCN(CCCCO)CCCCCCOC(=O)C(CCCCCC)CCCCCCCC (stereo not shown) [ALC-0315, reference compound]	199.8 ± 35.8	173.2 ± 103.9	–
CCCCCCCCCOC(=O)CCCCCCCN(CCO)CCCCCCCC(=O)OC(CCCCCCCC)CCCCCCCC [Compound M5]	10.1 ± 7.5	2.8 ± 0.3	–
CCCCCCCCCCCOC(=O)CCCCCN(CCO)CCCCCCCC(=O)OC(CCCCCCCC)CCCCCCCC [SM-102, reference compound]	6.2 ± 3.3	2.7 ± 0.6	–
CCCCCCCCC(CCCCCCCC)OC(=O)CCCCCCCN(CCO)CCCCCCCC(=O)OCCc1ccc(CCCCCCC)cc1 [SW-II-121]	77.8 ± 48.9	52.2 ± 38.9	significantly superior in vivo expression 6 hours after intramuscular administration to M5-LNP and MC3-LNP
CCCCCCCCC(CCCCCCCC)OC(=O)CCCCCCCN(CCO)CCCCCCCC(=O)OCc1cccc(CCCCCC)c1 [SW-II-122]	11.9 ± 1.2	2.8 ± 0.8	–
CCCCCCCCCOC(=O)CCCCCCCN(CCO)CCCCCCCC(=O)OCCc1ccc(CCCC)c(CCCC)c1 [SW-II-134-3]	8.2 ± 2.9	1.5 ± 0.8	–
CCCCCCCCC(CCCCCCCC)OC(=O)CCCCCCCN(CCO)CCCCCCCC(=O)OCCCCc1ccc(CCCCC)cc1 [SW-II-138-2]	8.2 ± 5.7	3.5 ± 0.2	–
CCCCCCCCC(CCCCCCCC)OC(=O)CCCCCCCN(CCO)CCCCCCCC(=O)OCCc1cccc(CCCC)c1 [SW-II-139-2]	75.1 ± 16.1	2.0 ± 1.0	–
CCCCCCCCC(CCCCCCCC)OC(=O)CCCCCCCN(CCO)CCCCCCCC(=O)OCCc1ccccc1CCCC [SW-II-140-2]	7.4 ± 4.0	3.3 ± 1.5	–
